Test results as given in PMC11576395 (iScience, 2024).
Where two headings read alike, the source gives them in different places.

Tests used:
Assay in all cases: thioflavin T aggregation assay of recombinant protein, […] compound
Assay type in all cases: biochemical
Details in all cases: read-out: % inhibition at 50 μM
α-synuclein [1] = target: T1, α-synuclein (Homo sapiens, UniProt P37840)
α-synuclein [2] = target: T1, α-synuclein; remark: listed apart in the source
[3] = target: T2, AIMP2 (aminoacyl-tRNA synthetase interacting multifunctional protein-2) (Homo sapiens, UniProt Q13155)
T2 sequence (Q13155 1-320): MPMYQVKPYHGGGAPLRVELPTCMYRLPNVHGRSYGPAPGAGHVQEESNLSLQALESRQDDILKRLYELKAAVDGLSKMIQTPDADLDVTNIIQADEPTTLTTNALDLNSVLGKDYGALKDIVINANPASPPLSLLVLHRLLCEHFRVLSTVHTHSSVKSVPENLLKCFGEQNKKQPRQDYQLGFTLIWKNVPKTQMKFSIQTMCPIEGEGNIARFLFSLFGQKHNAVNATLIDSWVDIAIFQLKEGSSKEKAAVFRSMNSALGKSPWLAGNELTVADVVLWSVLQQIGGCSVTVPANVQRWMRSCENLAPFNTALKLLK

| SMILES | inhibition at 50 µM (α-synuclein [1]) | inhibition at 50 µM (α-synuclein [2]) | inhibition at 50 µM [3] |
| --- | --- | --- | --- |
| C[C@]12CC[C@H]3[C@@H](CCC4=CC(=O)CC[C@@H]43)[C@@H]1CC[C@@H]2O [Nandrolone] | ~39.9% |  |  |
| CC(C)COc1ccc2c(c1)CC[C@@H]1[C@@H]2CC[C@]2(C)[C@H](O)CC[C@@H]12 [SG13-136, (8R,9S,13S,14S,17R)-3-isobutoxy-13-methyl-7,8,9,11,12,13,14,15,16,17-decahydro-6H-cyclopenta[a]phenanthren-17-ol] |  | 36.7% | 56.2% |
